The source of these data is the supplement of paper PMC10627819.

The subject of test [1] is S. aureus DSM 20231. Briefly: Bliss interaction score (quartile over a dose matrix) (fitness difference); higher = more antagonism (negative = synergy). In outline: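 Quartiles of the Bliss score were taken over technical, biological and donor/recipient replicates. That score is observed fitness minus the product of the single-drug fitness values, which were inferred from combination data. Fitness itself is OD595 at entry into stationary phase divided by the plate's robust no-drug mean, with a cap at 1.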

For test [2], the system named is S. aureus DSM 20231. Briefly: fitness (endpoint OD595 vs no drug) (fraction); higher = more growth. In outline:
(§1)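 Each well of a 384-well plate received 30 µl of culture at OD595 0.01, or 55 µl for S. pneumoniae. TSB, LB Lennox or CY served as media at 37 °C. OD595 was taken every 30 min for 14 h and corrected by subtracting the first reading. Fitness is the optical density at stationary-phase entry divided by the robust mean of no-drug controls, capped at 1.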

Test [3] has as its system S. aureus Newman. The test is described as above. In outline: as §1
For test [4], the system named is S. pneumoniae D39V. The description is as above. In outline: as §1
The mark [5] stands for this setting: first compound 0.0156 µg/mL, partner 0.15 µg/mL.
Where [6] appears, read: first compound 0.0156 µg/mL, partner 0.3 µg/mL.
Setting [7] is: first compound 0.0156 µg/mL, partner 0.6 µg/mL.
Where [8] appears, read: first compound 0.0312 µg/mL, partner 0.15 µg/mL.
Setting [9] is: first compound 0.0312 µg/mL, partner 0.3 µg/mL.
[10] abbreviates: first compound 0.0312 µg/mL, partner 0.6 µg/mL.
Setting [11] is: first compound 0.0625 µg/mL, partner 0.15 µg/mL.
[12] abbreviates: first compound 0.0625 µg/mL, partner 0.3 µg/mL.
[13] abbreviates: first compound 0.0625 µg/mL, partner 0.6 µg/mL.
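For Bliss interaction score (quartile over a dose matrix) in this document: first quartile when negative (synergy) and third quartile when positive (antagonism).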

For `C=C1/C(=C\C=C2/CCC[C@]3(C)[C@@H]([C@H](C)CCCC(C)C)CC[C@@H]23)C[C@@H](O)C[C@@H]1O` [Alfacalcidol] + O=C1CN(/N=C/c2ccc([N+](=O)[O-])o2)C(=O)N1 [Nitrofurantoin], the Bliss interaction score in test [1] was 0.185.
As for `CC[C@H](C)[C@H](N)C1=N[C@H](C(=O)N[C@@H](CC(C)C)C(=O)N[C@H](CCC(=O)O)C(=O)N[C@H](C(=O)N[C@H]2CCCCNC(=O)[C@H](CC(N)=O)NC(=O)[C@@H](CC(=O)O)NC(=O)[C@H](Cc3cnc[nH]3)NC(=O)[C@@H](Cc3ccccc3)NC(=O)[C@H]([C@@H](C)CC)NC(=O)[C@@H](CCCN)NC2=O)[C@@H](C)CC)CS1` [Bacitracin] + CCCSc1nc(N[C@@H]2C[C@H]2c2ccc(F)c(F)c2)c2nnn([C@@H]3C[C@H](OCCO)[C@@H](O)[C@H]3O)c2n1 [Ticagrelor], the Bliss interaction score in test [1] (main component drawn) was -0.27.
`CC[C@H](C)[C@H](N)C1=N[C@H](C(=O)N[C@@H](CC(C)C)C(=O)N[C@H](CCC(=O)O)C(=O)N[C@H](C(=O)N[C@H]2CCCCNC(=O)[C@H](CC(N)=O)NC(=O)[C@@H](CC(=O)O)NC(=O)[C@H](Cc3cnc[nH]3)NC(=O)[C@@H](Cc3ccccc3)NC(=O)[C@H]([C@@H](C)CC)NC(=O)[C@@H](CCCN)NC2=O)[C@@H](C)CC)CS1` [Bacitracin] + C[C@H]1C[C@@H]2[C@H]([C@@H](O)C[C@@]3(C)[C@H]2CC[C@]3(O)C(=O)CO)[C@@]2(C)C=CC(=O)C=C12 [Methylprednisolone]: the Bliss interaction score in test [1] (main component drawn) was -0.282.
With `O=c1[nH]cc(F)c(=O)[nH]1` [Fluorouracil] + CN(C)C(=O)C(CCN1CCC(O)(c2ccc(Cl)cc2)CC1)(c1ccccc1)c1ccccc1 [Loperamide], the Bliss interaction score in test [1] came out at 0.195.
Turning to `O=c1[nH]cc(F)c(=O)[nH]1` [Fluorouracil] + CN[C@@H]1[C@H](O[C@H]2[C@H](O[C@H]3[C@H](O)[C@@H](O)[C@H](N=C(N)N)[C@@H](O)[C@@H]3N=C(N)N)O[C@@H](C)[C@]2(O)C=O)O[C@@H](CO)[C@H](O)[C@H]1O [Streptomycin], the Bliss interaction score in test [1] was -0.184.
Turning to `O=c1[nH]cc(F)c(=O)[nH]1` [Fluorouracil] + O=C1CN(/N=C/c2ccc([N+](=O)[O-])o2)C(=O)N1 [Nitrofurantoin], the Bliss interaction score in test [1] was -0.206.
In the case of `CC[C@H](c1ccc(O)cc1)[C@@H](CC)c1ccc(O)cc1` [Hexestrol] + CN(C)C(=O)C(CCN1CCC(O)(c2ccc(Cl)cc2)CC1)(c1ccccc1)c1ccccc1 [Loperamide], in test [1], the Bliss interaction score is -0.456.
Same read-out and setting: as for `CC[C@H](c1ccc(O)cc1)[C@@H](CC)c1ccc(O)cc1` [Hexestrol] + CO[C@@]12[C@H](COC(N)=O)C3=C(C(=O)C(C)=C(N)C3=O)N1C[C@@H]1N[C@@H]12 [MitomycinC], the figure is -0.248; as for `CC(C)Cc1ccc(C(C)C(=O)O)cc1` (centres undefined) [Ibuprofen] + C/C(=C\C(=O)OCCCCCCCCC(=O)O)C[C@@H]1OC[C@H](C[C@@H]2O[C@H]2[C@@H](C)[C@H](C)O)[C@@H](O)[C@H]1O [Pseudomonic acid], 0.169; as for `CC(C)Cc1ccc(C(C)C(=O)O)cc1` (centres undefined) [Ibuprofen] + COc1cc(Cc2cnc(N)nc2N)cc(OC)c1OC [Trimethoprim], -0.145.
`CC(=O)NC[C@H]1CN(c2ccc(N3CCOCC3)c(F)c2)C(=O)O1` [Linezolid] + COc1ccc2[nH]c([S+]([O-])Cc3ncc(C)c(OC)c3C)nc2c1 [Omeprazole]: the Bliss interaction score in test [1] was 0.192.
As to `CN(Cc1cnc2nc(N)nc(N)c2n1)c1ccc(C(=O)N[C@@H](CCC(=O)O)C(=O)O)cc1` [Methotrexate] + CC1(C)S[C@@H]2[C@H](NC(=O)Cc3ccccc3)C(=O)N2[C@H]1C(=O)O [PenicillinG], in test [1], the Bliss interaction score is -0.169.
`CN(Cc1cnc2nc(N)nc(N)c2n1)c1ccc(C(=O)N[C@@H](CCC(=O)O)C(=O)O)cc1` [Methotrexate] + COc1cc(Cc2cnc(N)nc2N)cc(OC)c1OC [Trimethoprim]: in test [1], the Bliss interaction score is -0.242.
Turning to `CO[C@@]12[C@H](COC(N)=O)C3=C(C(=O)C(C)=C(N)C3=O)N1C[C@@H]1N[C@@H]12` [Mitomycin C] + CN(N=O)C(=O)N[C@@H](C=O)[C@@H](O)[C@H](O)[C@H](O)CO [Streptozotocin], the fitness in test [2] (setting [5]) stood at 0.706; in test [2] (setting [6]), 0.633; in test [2] (setting [7]), 0.571; in test [2] (setting [8]) it was 0.656; in test [2] (setting [9]), 0.645; in test [2] (setting [10]), 0.56. The fitness in test [2] (setting [11]) was found to be 0.541; in test [2] (setting [12]), 0.51; in test [2] (setting [13]) it was 0.433; in test [3] (setting [5]) it was 0.654; in test [3] (setting [6]) it was 0.615; in test [3] (setting [7]) it was 0.462. Also, the fitness came out at 0.578 in test [3] (setting [8]); 0.548 in test [3] (setting [9]); 0.381 in test [3] (setting [10]); 0.433 in test [3] (setting [11]); 0.379 in test [3] (setting [12]); 0.185 in test [3] (setting [13]). In addition, the fitness in test [4] (first compound 0.001075 µg/mL, partner 1.2 µg/mL) worked out at 0.899; in test [4] (first compound 0.001075 µg/mL, partner 2.4 µg/mL), 0.911; in test [4] (first compound 0.001075 µg/mL, partner 4.8 µg/mL), 0.915; in test [4] (first compound 0.002 µg/mL, partner 1.2 µg/mL, one replicate), 0.815; in test [4] (first compound 0.002 µg/mL, partner 2.4 µg/mL, one replicate), 0.796; in test [4] (first compound 0.002 µg/mL, partner 4.8 µg/mL, one replicate), 0.653. The fitness was 0.84 in test [4] (first compound 0.00215 µg/mL, partner 1.2 µg/mL); 0.886 in test [4] (first compound 0.00215 µg/mL, partner 2.4 µg/mL); 0.848 in test [4] (first compound 0.00215 µg/mL, partner 4.8 µg/mL); 0.769 in test [4] (first compound 0.004 µg/mL, partner 1.2 µg/mL, one replicate); 0.739 in test [4] (first compound 0.004 µg/mL, partner 2.4 µg/mL, one replicate); 0.597 in test [4] (first compound 0.004 µg/mL, partner 4.8 µg/mL, one replicate). The fitness in test [4] (first compound 0.0043 µg/mL, partner 1.2 µg/mL) came to 0.74; in test [4] (first compound 0.0043 µg/mL, partner 2.4 µg/mL) it was 0.777; in test [4] (first compound 0.0043 µg/mL, partner 4.8 µg/mL), 0.603; in test [4] (first compound 0.008 µg/mL, partner 1.2 µg/mL, one replicate), 0.525; in test [4] (first compound 0.008 µg/mL, partner 2.4 µg/mL, one replicate), 0.588; in test [4] (first compound 0.008 µg/mL, partner 4.8 µg/mL, one replicate), 0.347.
